Measurements as given in US20250250230A1, “HETEROCYCLIC COMPOUND” (TAKEDA PHARMACEUTICAL COMPANY LIMITED, priority 2022, published 2025).

The compounds below were run against T1, human orexin type 2 receptor (Homo sapiens, UniProt O43614) (assay: Measurement of orexin type 2 receptor agonist activity (calcium fluorescence, Fluo-4 AM, FDSS)). Conditions: test compound 3 μM; CHO cells expressing human OX2 receptor; DMSO = 0%, orexin A (human) = 100%.
T1 construct: expressed in transfected cells
T1 sequence (O43614 1-444): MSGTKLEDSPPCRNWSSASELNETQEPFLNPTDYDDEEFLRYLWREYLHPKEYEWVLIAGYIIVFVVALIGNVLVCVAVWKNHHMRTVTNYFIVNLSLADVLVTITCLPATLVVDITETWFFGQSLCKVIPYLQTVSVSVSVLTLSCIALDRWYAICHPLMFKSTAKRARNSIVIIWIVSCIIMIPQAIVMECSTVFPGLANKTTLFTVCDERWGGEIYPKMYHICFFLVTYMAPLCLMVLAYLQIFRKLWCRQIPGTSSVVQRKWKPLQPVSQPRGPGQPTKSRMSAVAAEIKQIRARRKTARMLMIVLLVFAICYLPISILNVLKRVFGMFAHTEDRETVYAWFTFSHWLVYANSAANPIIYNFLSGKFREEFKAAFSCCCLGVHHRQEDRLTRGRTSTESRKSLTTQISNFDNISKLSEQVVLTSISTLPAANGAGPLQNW
Assay type: cell-based
Description: To obtain a cell clone stably expressing human orexin type 2 receptor, human orexin type 2 receptor cDNA was inserted into pcDNA3.1(+) plasmid vector (Invitrogen), and a plasmid DNA for expression of human orexin type 2 receptor (pcDNA3.1(+)/hOX2R) was cloned. The plasmid DNA was introduced into CHO-K1 cell by an electroporation method, and human orexin type 2 receptor expressing clone cells were obtained by limiting dilution method by using G418 drug resistance as a selection marker.
CHO cells forcibly expressing human OX2 receptor were seeded in each well of 384 well black transparent bottom plate (BD Falcon) at 10,000 cells/well, and cultured for one day in a 5% CO2 incubator at 37° C. After removal of the medium in the cell plate, assay buffer A containing a calcium indicator (HBSS (Thermo Fisher Scientific), 20 mM HEPES (Thermo Fisher Scientific), 0.1% BSA (Sigma-Aldrich), 2.5 μg/mL Fluo-4 AM (DOJINDO Chemical), 0.08% Pluronic F127 (DOJINDO Chemical), 1.25 mM probenecid (DOJINDO Chemical)) was added at 30 μL/well. The plate was stood for 30 min in a 5% CO2 incubator at 37° C., and further stood at room temperature for 30 min. A test compound prepared by diluting with assay buffer B (HBSS, 20 mM HEPES, 0.1% BSA) was added at 10 μL/well, and the fluorescence value was measured by FDSSμCELL (Hamamatsu Photonics K.K.) every one sec for 1 min, and thereafter every two sec for […]. The activity (%) of the test compound was calculated assuming that variation in the fluorescence value when DMSO was added instead of the test compound was 0%, and variation in the fluorescence value when orexin A (human) (PEPTIDE INSTITUTE, INC.) was added at the final concentration of 10 nM was 100%.

Row | SMILES | OX2R agonist activity (3 μM, %) [%]
1 | CC1[C@@H](NS(C)(=O)=O)CCN1C(=O)[C@@H]1C[C@H]1c1ccccc1-c1c(F)cccc1F (mixture of isomers) [Example 261, a mixture of N-{(2R,3R)-1-[(1R,2R)-2-(2′,6′-difluoro[1,1′-biphenyl]-2-yl)cyclopropane-1-carbonyl]-2-methylpyrrolidin-3-yl}methanesulfonamide and N-{(2S,3S)-1-[(1R,2R)-2-(2′,6′-difluoro[1,1′-biphenyl]-2-yl)cyclopropane-1-carbonyl]-2-methylpyrrolidin-3-yl}methanesulfonamide] | 88
2 | CS(=O)(=O)N[C@H]1CCCN(C(=O)C2CC2c2cccc(F)c2-c2c(F)cccc2F)CC1 (mixture of isomers) [Example 194, a mixture of N-{(4S)-1-[(1R,2R)-2-(2′,6,6′-trifluoro[1,1′-biphenyl]-2-yl)cyclopropane-1-carbonyl]azepan-4-yl}methanesulfonamide and N-{(4S)-1-[(1S,2S)-2-(2′,6,6′-trifluoro[1,1′-biphenyl]-2-yl)cyclopropane-1-carbonyl]azepan-4-yl}methanesulfonamide] | 100
3 | CS(=O)(=O)NC1CCN(C(=O)C2CC2c2ccccc2-c2ccccc2Cl)C1 (racemic) [Example 85, a mixture of rac-N-{(3R)-1-[(1R,2R)-2-(2′-chloro[1,1′-biphenyl]-2-yl)cyclopropane-1-carbonyl]pyrrolidin-3-yl}methanesulfonamide and rac-N-{(3S)-1-[(1R,2R)-2-(2′-chloro[1,1′-biphenyl]-2-yl)cyclopropane-1-carbonyl]pyrrolidin-3-yl}methanesulfonamide] | 68
4 | CS(=O)(=O)NC12CC1CN(C(=O)C1CC1c1ccccc1-c1c(F)cccc1F)C2 (racemic) [Example 124, a mixture of rac-N-{(1S,5R)-3-[(1R,2R)-2-(2′,6′-difluoro[1,1′-biphenyl]-2-yl)cyclopropane-1-carbonyl]-3-azabicyclo[3.1.0]hexan-1-yl}methanesulfonamide and rac-N-{(1R,5S)-3-[(1R,2R)-2-(2′,6′-difluoro[1,1′-biphenyl]-2-yl)cyclopropane-1-carbonyl]-3-azabicyclo[3.1.0]hexan-1-yl}methanesulfonamide] | 104
5 | CS(=O)(=O)NC1CCCN(C(=O)C2CC2c2ccc(C(F)F)cc2-c2c(F)cccc2F)C1 (racemic) [Example 230, a mixture of rac-N-[(3R)-1-{(1R,2R)-2-[5-(difluoromethyl)-2′,6′-difluoro[1,1′-biphenyl]-2-yl]cyclopropane-1-carbonyl}piperidin-3-yl]methanesulfonamide and rac-N-[(3S)-1-{(1R,2R)-2-[5-(difluoromethyl)-2′,6′-difluoro[1,1′-biphenyl]-2-yl]cyclopropane-1-carbonyl}piperidin-3-yl]methanesulfonamide] | 91
6 | O=C(C1CC1c1ccccc1-c1c(F)cccc1F)N1CC[C@H](NS(=O)(=O)CF)C1 (mixture of isomers) [Example 202, a mixture of rac-N-{(3S)-1-[(1R,2R)-2-(2′,6′-difluoro[1,1′-biphenyl]-2-yl)cyclopropane-1-carbonyl]pyrrolidin-3-yl}-1-fluoromethanesulfonamide and N-{(3S)-1-[(1S,2S)-2-(2′,6′-difluoro[1,1′-biphenyl]-2-yl)cyclopropane-1-carbonyl]pyrrolidin-3-yl}-1-fluoromethanesulfonamide] | 106
7 | O=C(C1CC1c1ccccc1-c1c(F)cccc1F)N1CCC[C@H](NS(=O)(=O)CBr)C1 (mixture of isomers) [Example 213, a mixture of 1-bromo-N-{(3S)-1-[(1R,2R)-2-(2′,6′-difluoro[1,1′-biphenyl]-2-yl)cyclopropane-1-carbonyl]piperidin-3-yl}methanesulfonamide and 1-bromo-N-{(3S)-1-[(1S,2S)-2-(2′,6′-difluoro[1,1′-biphenyl]-2-yl)cyclopropane-1-carbonyl]piperidin-3-yl}methanesulfonamide] | 100
8 | CS(=O)(=O)N[C@H]1CCCN(C(=O)C2CC2(F)c2ccccc2-c2c(F)cccc2F)C1 (mixture of isomers) [Example 199, a mixture of N-{(3S)-1-[(1R,2R)-2-(2′,6′-difluoro[1,1′-biphenyl]-2-yl)-2-fluorocyclopropane-1-carbonyl]piperidin-3-yl}methanesulfonamide and N-{(3S)-1-[(1S,2S)-2-(2′,6′-difluoro[1,1′-biphenyl]-2-yl)-2-fluorocyclopropane-1-carbonyl]piperidin-3-yl}methanesulfonamide] | 104

Continued, values first:

Row | OX2R agonist activity (3 μM, %) [%] | SMILES
9 | 98 | CCS(=O)(=O)NC[C@@H]1[C@H](O)CN1C(=O)[C@@H]1C[C@@]1(F)c1ccccc1-c1c(F)cccc1F [Example 374, N-({(2R,3R)-1-[(1S,2S)-2-(2′,6′-difluoro[1,1′-biphenyl]-2-yl)-2-fluorocyclopropane-1-carbonyl]-3-hydroxyazetidin-2-yl}methyl)ethanesulfonamide]
10 | 101 | CS(=O)(=O)N[C@H]1CCN(C(=O)C2C(c3ccccc3-c3c(F)cccc3F)C2(F)F)C1 (mixture of isomers) [Example 320, a mixture of N-{(3S)-1-[(1R,2R)-2-(2′,6′-difluoro[1,1′-biphenyl]-2-yl)-2,2-difluorocyclopropane-1-carbonyl]pyrrolidin-3-yl}methanesulfonamide and N-{(3S)-1-[(1S,3S)-3-(2′,6′-difluoro[1,1′-biphenyl]-2-yl)-2,2-difluorocyclopropane-1-carbonyl]pyrrolidin-3-yl}methanesulfonamide]
11 | 96 | O=C([C@@H]1C[C@H]1c1ccccc1-c1c(F)cccc1F)N1CC[C@H]1CNS(=O)(=O)N1CCC1 [Example 334, N-({(2S)-1-[(1R,2R)-2-(2′,6′-difluoro[1,1′-biphenyl]-2-yl)cyclopropane-1-carbonyl]azetidin-2-yl}methyl)azetidine-1-sulfonamide]
12 | 102 | CO[C@@H]1CCN(C(=O)[C@@H]2C[C@H]2c2ccccc2-c2c(F)cccc2F)C[C@H]1NS(C)(=O)=O [Example 350, N-{(3R,4R)-1-[(1R,2R)-2-(2′,6′-difluoro[1,1′-biphenyl]-2-yl)cyclopropane-1-carbonyl]-4-methoxypiperidin-3-yl}methanesulfonamide]
13 | 94 | O=C([C@@H]1C[C@@]1(F)c1ccc(F)cc1-c1c(F)cccc1F)N1C[C@@H](F)[C@H]1CNS(=O)(=O)C(F)(F)F [Example 449, 1,1,1-trifluoro-N-({(2R,3R)-3-fluoro-1-[(1S,2S)-2-fluoro-2-(2′,5,6′-trifluoro[1,1′-biphenyl]-2-yl)cyclopropane-1-carbonyl]azetidin-2-yl}methyl)methanesulfonamide]
14 | 87 | Cc1cc(-c2c(F)cccc2F)c(C2CC2C(=O)N2CCCC(NS(C)(=O)=O)CC2)cn1 (racemic) [Example 266, a mixture of rac-N-[(4R)-1-{(1R,2R)-2-[4-(2,6-difluorophenyl)-6-methylpyridin-3-yl]cyclopropane-1-carbonyl}azepan-4-yl]methanesulfonamide and rac-N-[(4S)-1-{(1R,2R)-2-[4-(2,6-difluorophenyl)-6-methylpyridin-3-yl]cyclopropane-1-carbonyl}azepan-4-yl]methanesulfonamide]
15 | 96 | CCNS(=O)(=O)NC[C@@H]1[C@H](F)CN1C(=O)[C@@H]1C[C@@]1(F)c1ccc(F)cc1-c1c(F)cccc1F [Example 427, N-ethyl-N′-({(2R,3R)-3-fluoro-1-[(1S,2S)-2-fluoro-2-(2′,5,6′-trifluoro[1,1′-biphenyl]-2-yl)cyclopropane-1-carbonyl]azetidin-2-yl}methyl)sulfuric diamide]
16 | 99 | C[C@@H]1CN(C(=O)C2CC2(F)c2c(F)cccc2-c2c(F)cccc2F)[C@@H]1CNS(C)(=O)=O (stereo partly drawn) [Example 395, N-({(2S,3R)-1-[(1R,2R)-2-fluoro-2-(2′,3,6′-trifluoro[1,1′-biphenyl]-2-yl)cyclopropane-1-carbonyl]-3-methylazetidin-2-yl}methyl)methanesulfonamide, or N-({(2S,3R)-1-[(1S,2S)-2-fluoro-2-(2′,3,6′-trifluoro[1,1′-biphenyl]-2-yl)cyclopropane-1-carbonyl]-3-methylazetidin-2-yl}methyl)methanesulfonamide]
